According to patent publication US20020026053A1, “Novel 3-(substituted) -2- indolinones compounds and use thereof as inhibitors of protein kinase activity” (priority 1997, published 2002):

What follows are compounds tested against T1, Met receptor (EGFR/Met chimeric cells, EMR) (Homo sapiens, UniProt P08581) (assay: Met Autophosphorylation Assay). Conditions: protocol P.130.
T1 construct: expressed in transfected cells; the other entry of the earlier key: EGFR (P00533, Epidermal growth factor receptor)
T1 sequence (P08581 with tags, fused parts or gaps): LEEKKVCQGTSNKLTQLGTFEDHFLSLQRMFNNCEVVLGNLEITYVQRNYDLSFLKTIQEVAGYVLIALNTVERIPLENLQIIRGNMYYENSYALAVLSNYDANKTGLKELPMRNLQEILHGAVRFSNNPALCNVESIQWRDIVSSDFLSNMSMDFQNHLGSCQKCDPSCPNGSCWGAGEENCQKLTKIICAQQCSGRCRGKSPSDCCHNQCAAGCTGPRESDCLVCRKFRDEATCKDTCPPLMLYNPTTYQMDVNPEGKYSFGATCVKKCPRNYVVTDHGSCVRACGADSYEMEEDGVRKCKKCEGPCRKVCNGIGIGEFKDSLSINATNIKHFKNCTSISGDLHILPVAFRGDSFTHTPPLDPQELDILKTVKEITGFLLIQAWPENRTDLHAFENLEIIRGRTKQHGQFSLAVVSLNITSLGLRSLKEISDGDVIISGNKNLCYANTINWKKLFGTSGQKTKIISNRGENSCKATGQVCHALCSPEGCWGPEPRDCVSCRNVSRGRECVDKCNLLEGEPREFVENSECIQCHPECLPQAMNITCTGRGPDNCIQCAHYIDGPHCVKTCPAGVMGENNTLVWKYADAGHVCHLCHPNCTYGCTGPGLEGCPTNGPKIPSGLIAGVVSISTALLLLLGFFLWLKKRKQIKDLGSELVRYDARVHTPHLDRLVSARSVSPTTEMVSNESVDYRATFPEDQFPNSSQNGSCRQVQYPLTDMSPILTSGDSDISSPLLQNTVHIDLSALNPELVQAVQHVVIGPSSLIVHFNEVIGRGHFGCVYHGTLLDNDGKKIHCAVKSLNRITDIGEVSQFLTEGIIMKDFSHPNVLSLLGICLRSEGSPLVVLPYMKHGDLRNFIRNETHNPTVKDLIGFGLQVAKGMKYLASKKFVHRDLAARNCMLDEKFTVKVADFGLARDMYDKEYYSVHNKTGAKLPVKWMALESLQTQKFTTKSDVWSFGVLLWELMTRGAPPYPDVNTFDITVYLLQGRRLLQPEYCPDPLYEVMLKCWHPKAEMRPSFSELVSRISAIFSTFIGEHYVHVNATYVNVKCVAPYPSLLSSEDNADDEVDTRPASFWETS
Assay type: biochemical
Summary of the method: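 Met phosphorylation was measured by capture ELISA. Lysates (90 μg/100 μl, HNTG plus 1 mM PMSF) from transiently transfected EGFR/Met chimera (EMR) cells were bound for 60 min at room temperature to wells holding rabbit anti-Met (C-28) on goat anti-rabbit coat. Phosphotyrosine was the read-out.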
With `COC1CCCN1C=C1C(=O)Nc2c(Br)cc(Br)cc21` (racemic) [10740/A04] the “Met Kinase % Inhibition (P.130)” value was 48.2%. For `COC1CCCN1C=C1C(=O)Nc2ccc(I)cc21` (racemic) [10740/B04], the “Met Kinase % Inhibition (P.130)” value was 76.7%. For `Cc1c(Br)cc(Br)c2c1C(=Cc1ccc(CO)o1)C(=O)N2` [10739/H11], the “Met Kinase % Inhibition (P.130)” value was 75.8%. In the case of `O=C1Nc2c(Br)cc(Br)cc2C1=Cc1cnc2ccccc2c1` [10740/A02], the “Met Kinase % Inhibition (P.130)” value is reported as 56.3%. For `O=C1Nc2c(Br)cc(Br)cc2C1=Cc1ccnc2ccccc12` [10740/A03], the “Met Kinase % Inhibition (P.130)” value was 77.8%. `O=C1Nc2c(Br)cc(Br)cc2C1=Cc1ccsc1` [10740/A05] was tested, and the “Met Kinase % Inhibition (P.130)” value was 79.5%. `O=C1Nc2c(Br)cc(Br)cc2C1=Cc1ccc2ccccc2n1` [10740/A06] was tested, and the “Met Kinase % Inhibition (P.130)” value was 48.5%. In the case of `Cn1cc(C=C2C(=O)Nc3c(Br)cc(Br)cc32)c2ccccc21` [10740/A07], the “Met Kinase % Inhibition (P.130)” value is reported as 54.9%. `Cc1[nH]c2ccccc2c1C=C1C(=O)Nc2c(Br)cc(Br)cc21` [10740/A08] was tested, and the “Met Kinase % Inhibition (P.130)” value was 43.2%. With `O=C1Nc2c(Br)cc(Br)cc2C1=Cc1cc(Br)cs1` [10740/A10] the “Met Kinase % Inhibition (P.130)” value was 45.1%. For `CCCCOc1ccc(C=C2C(=O)Nc3c(Br)cc(Br)cc32)cc1` [10740/A11], the “Met Kinase % Inhibition (P.130)” value was 30.3%. For `O=C1Nc2ccc(I)cc2C1=Cc1cnc2ccccc2c1` [10740/B02], the “Met Kinase % Inhibition (P.130)” value was 79.2%. For `O=C1Nc2ccc(I)cc2C1=Cc1ccnc2ccccc12` [10740/B03], the “Met Kinase % Inhibition (P.130)” value was 84.8%. `O=C1Nc2ccc(I)cc2C1=Cc1ccsc1` [10740/B05] was tested, and the “Met Kinase % Inhibition (P.130)” value was 82.3%. For `O=C1Nc2ccc(I)cc2C1=Cc1ccc2ccccc2n1` [10740/B06], the “Met Kinase % Inhibition (P.130)” value was 68.9%. `Cn1cc(C=C2C(=O)Nc3ccc(I)cc32)c2ccccc21` [10740/B07] was tested, and the “Met Kinase % Inhibition (P.130)” value was 73.7%. With `Cc1[nH]c2ccccc2c1C=C1C(=O)Nc2ccc(I)cc21` [10740/B08] the “Met Kinase % Inhibition (P.130)” value was 65.0%. For `O=C1Nc2ccc(I)cc2C1=Cc1cc(Br)cs1` [10740/B10], the “Met Kinase % Inhibition (P.130)” value was 58.0%. With `CCCCOc1ccc(C=C2C(=O)Nc3ccc(I)cc32)cc1` [10740/B11] the “Met Kinase % Inhibition (P.130)” value was 68.6%. `Cc1c(Br)ccc2c1C(=Cc1cnc3ccccc3c1)C(=O)N2` [10740/C02] was tested, and the “Met Kinase % Inhibition (P.130)” value was 45.1%. For `Cc1c(Br)ccc2c1C(=Cc1ccnc3ccccc13)C(=O)N2` [10740/C03], the “Met Kinase % Inhibition (P.130)” value was 63.6%. For `COC1CCCN1C=C1C(=O)Nc2ccc(Br)c(C)c21` (stereo not shown) [10740/C04], the “Met Kinase % Inhibition (P.130)” value was −4.9%. `Cc1c(Br)ccc2c1C(=Cc1ccsc1)C(=O)N2` [10740/C05] was tested, and the “Met Kinase % Inhibition (P.130)” value was 66.1%. With `Cc1c(Br)ccc2c1C(=Cc1ccc3ccccc3n1)C(=O)N2` [10740/C06] the “Met Kinase % Inhibition (P.130)” value was 49.3%. With `Cc1c(Br)ccc2c1C(=Cc1cn(C)c3ccccc13)C(=O)N2` [10740/C07] the “Met Kinase % Inhibition (P.130)” value was 44.3%. For `Cc1[nH]c2ccccc2c1C=C1C(=O)Nc2ccc(Br)c(C)c21` [10740/C08], the “Met Kinase % Inhibition (P.130)” value was 28.7%. For `Cc1c(Br)ccc2c1C(=Cc1cc(Br)cs1)C(=O)N2` [10740/C10], the “Met Kinase % Inhibition (P.130)” value was −1.8%. `CCCCOc1ccc(C=C2C(=O)Nc3ccc(Br)c(C)c32)cc1` [10740/C11] was tested, and the “Met Kinase % Inhibition (P.130)” value was −10.8%. In the case of `CNS(=O)(=O)c1ccc2c(c1)C(=Cc1cnc3ccccc3c1)C(=O)N2` [10740/D02], the “Met Kinase % Inhibition (P.130)” value is reported as 49.9%. With `CNS(=O)(=O)c1ccc2c(c1)C(=Cc1ccnc3ccccc13)C(=O)N2` [10740/D03] the “Met Kinase % Inhibition (P.130)” value was 64.4%. For `CNS(=O)(=O)c1ccc2c(c1)C(=CN1CCCC1OC)C(=O)N2` (stereo not shown) [10740/D04], the “Met Kinase % Inhibition (P.130)” value was 19.4%. With `CNS(=O)(=O)c1ccc2c(c1)C(=Cc1ccsc1)C(=O)N2` [10740/D05] the “Met Kinase % Inhibition (P.130)” value was 39.3%. `CNS(=O)(=O)c1ccc2c(c1)C(=Cc1ccc3ccccc3n1)C(=O)N2` [10740/D06] was tested, and the “Met Kinase % Inhibition (P.130)” value was 41.8%. For `CNS(=O)(=O)c1ccc2c(c1)C(=Cc1cn(C)c3ccccc13)C(=O)N2` [10740/D07], the “Met Kinase % Inhibition (P.130)” value was 27.3%. In the case of `CNS(=O)(=O)c1ccc2c(c1)C(=Cc1c(C)[nH]c3ccccc13)C(=O)N2` [10740/D08], the “Met Kinase % Inhibition (P.130)” value is reported as 30.3%. In the case of `CNS(=O)(=O)c1ccc2c(c1)C(=Cc1cc(Br)cs1)C(=O)N2` [10740/D10], the “Met Kinase % Inhibition (P.130)” value is reported as 16.1%. In the case of `CCCCOc1ccc(C=C2C(=O)Nc3ccc(S(=O)(=O)NC)cc32)cc1` [10740/D11], the “Met Kinase % Inhibition (P.130)” value is reported as −9.1%. With `O=C1Nc2ccc(S(=O)(=O)Nc3ccc(C(F)(F)F)cc3)cc2C1=Cc1cnc2ccccc2c1` [10740/E02] the “Met Kinase % Inhibition (P.130)” value was 48.2%. `O=C1Nc2ccc(S(=O)(=O)Nc3ccc(C(F)(F)F)cc3)cc2C1=Cc1ccnc2ccccc12` [10740/E03] was tested, and the “Met Kinase % Inhibition (P.130)” value was 66.4%. In the case of `COC1CCCN1C=C1C(=O)Nc2ccc(S(=O)(=O)Nc3ccc(C(F)(F)F)cc3)cc21` (stereo not shown) [10740/E04], the “Met Kinase % Inhibition (P.130)” value is reported as 41.8%. `O=C1Nc2ccc(S(=O)(=O)Nc3ccc(C(F)(F)F)cc3)cc2C1=Cc1ccsc1` [10740/E05] was tested, and the “Met Kinase % Inhibition (P.130)” value was 75.6%. For `O=C1Nc2ccc(S(=O)(=O)Nc3ccc(C(F)(F)F)cc3)cc2C1=Cc1ccc2ccccc2n1` [10740/E06], the “Met Kinase % Inhibition (P.130)” value was 16.6%. `Cn1cc(C=C2C(=O)Nc3ccc(S(=O)(=O)Nc4ccc(C(F)(F)F)cc4)cc32)c2ccccc21` [10740/E07] was tested, and the “Met Kinase % Inhibition (P.130)” value was 19.7%. `Cc1[nH]c2ccccc2c1C=C1C(=O)Nc2ccc(S(=O)(=O)Nc3ccc(C(F)(F)F)cc3)cc21` [10740/E08] was tested, and the “Met Kinase % Inhibition (P.130)” value was 39.0%. For `O=C1Nc2ccc(S(=O)(=O)Nc3ccc(C(F)(F)F)cc3)cc2C1=Cc1cc(Br)cs1` [10740/E10], the “Met Kinase % Inhibition (P.130)” value was 61.9%. `CCCCOc1ccc(C=C2C(=O)Nc3ccc(S(=O)(=O)Nc4ccc(C(F)(F)F)cc4)cc32)cc1` [10740/E11] was tested, and the “Met Kinase % Inhibition (P.130)” value was −16.9%. `O=C1Nc2ccc(S(=O)(=O)N3CCOCC3)cc2C1=Cc1cnc2ccccc2c1` [10740/F02] was tested, and the “Met Kinase % Inhibition (P.130)” value was 59.4%. For `O=C1Nc2ccc(S(=O)(=O)N3CCOCC3)cc2C1=Cc1ccnc2ccccc12` [10740/F03], the “Met Kinase % Inhibition (P.130)” value was 32.8%. `COC1CCCN1C=C1C(=O)Nc2ccc(S(=O)(=O)N3CCOCC3)cc21` (stereo not shown) [10740/F04] was tested, and the “Met Kinase % Inhibition (P.130)” value was −5.2%. For `O=C1Nc2ccc(S(=O)(=O)N3CCOCC3)cc2C1=Cc1ccsc1` [10740/F05], the “Met Kinase % Inhibition (P.130)” value was 52.1%. With `O=C1Nc2ccc(S(=O)(=O)N3CCOCC3)cc2C1=Cc1ccc2ccccc2n1` [10740/F06] the “Met Kinase % Inhibition (P.130)” value was 25.3%. With `Cn1cc(C=C2C(=O)Nc3ccc(S(=O)(=O)N4CCOCC4)cc32)c2ccccc21` [10740/F07] the “Met Kinase % Inhibition (P.130)” value was 28.4%. With `Cc1[nH]c2ccccc2c1C=C1C(=O)Nc2ccc(S(=O)(=O)N3CCOCC3)cc21` [10740/F08] the “Met Kinase % Inhibition (P.130)” value was 35.9%. In the case of `O=C1Nc2ccc(S(=O)(=O)N3CCOCC3)cc2C1=Cc1cc(Br)cs1` [10740/F10], the “Met Kinase % Inhibition (P.130)” value is reported as 58.3%. In the case of `CCCCOc1ccc(C=C2C(=O)Nc3ccc(S(=O)(=O)N4CCOCC4)cc32)cc1` [10740/F11], the “Met Kinase % Inhibition (P.130)” value is reported as 42.9%. With `O=C1Nc2ccc(CCCl)cc2C1=Cc1cnc2ccccc2c1` [10740/G02] the “Met Kinase % Inhibition (P.130)” value was 55.2%. `O=C1Nc2ccc(CCCl)cc2C1=Cc1ccnc2ccccc12` [10740/G03] was tested, and the “Met Kinase % Inhibition (P.130)” value was 34.8%. `COC1CCCN1C=C1C(=O)Nc2ccc(CCCl)cc21` (stereo not shown) [10740/G04] was tested, and the “Met Kinase % Inhibition (P.130)” value was 9.1%. In the case of `O=C1Nc2ccc(CCCl)cc2C1=Cc1ccsc1` [10740/G05], the “Met Kinase % Inhibition (P.130)” value is reported as 30.3%. `O=C1Nc2ccc(CCCl)cc2C1=Cc1ccc2ccccc2n1` [10740/G06] was tested, and the “Met Kinase % Inhibition (P.130)” value was 25.0%. For `Cn1cc(C=C2C(=O)Nc3ccc(CCCl)cc32)c2ccccc21` [10740/G07], the “Met Kinase % Inhibition (P.130)” value was 10.8%. `Cc1[nH]c2ccccc2c1C=C1C(=O)Nc2ccc(CCCl)cc21` [10740/G08] was tested, and the “Met Kinase % Inhibition (P.130)” value was 33.4%. With `O=C1Nc2ccc(CCCl)cc2C1=Cc1cc(Br)cs1` [10740/G10] the “Met Kinase % Inhibition (P.130)” value was 19.4%. In the case of `CCCCOc1ccc(C=C2C(=O)Nc3ccc(CCCl)cc32)cc1` [10740/G11], the “Met Kinase % Inhibition (P.130)” value is reported as 13.3%. With `Cc1c(Br)cc(Br)c2c1C(=Cc1cnc3ccccc3c1)C(=O)N2` [10740/H02] the “Met Kinase % Inhibition (P.130)” value was 28.7%. `Cc1c(Br)cc(Br)c2c1C(=Cc1ccnc3ccccc13)C(=O)N2` [10740/H03] was tested, and the “Met Kinase % Inhibition (P.130)” value was 17.5%. For `COC1CCCN1C=C1C(=O)Nc2c(Br)cc(Br)c(C)c21` (stereo not shown) [10740/H04], the “Met Kinase % Inhibition (P.130)” value was 30.9%. In the case of `Cc1c(Br)cc(Br)c2c1C(=Cc1ccsc1)C(=O)N2` [10740/H05], the “Met Kinase % Inhibition (P.130)” value is reported as 25.6%. `Cc1c(Br)cc(Br)c2c1C(=Cc1ccc3ccccc3n1)C(=O)N2` [10740/H06] was tested, and the “Met Kinase % Inhibition (P.130)” value was 33.4%. For `Cc1c(Br)cc(Br)c2c1C(=Cc1cn(C)c3ccccc13)C(=O)N2` [10740/H07], the “Met Kinase % Inhibition (P.130)” value was 1.5%. In the case of `Cc1[nH]c2ccccc2c1C=C1C(=O)Nc2c(Br)cc(Br)c(C)c21` [10740/H08], the “Met Kinase % Inhibition (P.130)” value is reported as 28.1%. In the case of `Cc1c(Br)cc(Br)c2c1C(=Cc1cc(Br)cs1)C(=O)N2` [10740/H10], the “Met Kinase % Inhibition (P.130)” value is reported as 43.7%. With `CCCCOc1ccc(C=C2C(=O)Nc3c(Br)cc(Br)c(C)c32)cc1` [10740/H11] the “Met Kinase % Inhibition (P.130)” value was 17.2%.
